{"source": "patent US12011450B2", "about": "“Polyethylene glycol-conjugated glucocorticoid prodrugs and compositions and methods thereof” (Board of Regents of the University of Nebraska, priority 2015, dated 2024)", "key": {"NZB/W F1 mice [1]": {"test_system": "NZB/W F1 mice", "conditions": "mouse, in vivo", "text": "Therefore, at necropsy, we determined the mass of the adrenal glands in each mouse."}, "anti-dsDNA IgG": {"test_system": "anti-dsDNA IgG", "test": "Serum anti-dsDNA IgG level", "format": "in vivo, mice", "conditions": "4 and 8 weeks post-treatment initiation"}, "NZB/W F1 mice kidneys": {"test_system": "NZB/W F1 mice kidneys", "test": "Histological evaluation of PAS-stained kidney sections", "format": "in vivo", "conditions": "2-month treatment end point", "text": "The tissues were formalin-fixed, sectioned (3 μm) and periodic-acid schiff (PAS) stained for visual examination and 4 point grading by a pathologist, who is blind to the group design.\nThe periodic-acid schiff (PAS) stained kidney sections were also graded by a histopathologic score system with a 4-point scale."}, "NZB/W F1 mice [2]": {"test_system": "NZB/W F1 mice", "conditions": "mouse, in vivo", "remark": "listed apart in the source", "text": "Therefore, we monitored peripheral white blood cell (WBC) counts and during the experimental time course."}, "MCP-1, IFN-β, IFN-γ": {"test_system": "MCP-1, IFN-β, IFN-γ", "test": "Serum inflammatory cytokine/chemokine analysis", "format": "in vivo, mice", "conditions": "end of 2-month treatment", "experimental": "Their urine protein level was monitored weekly using Albustix Reagent Strips (Siemens Healthineers). Only mice with established nephritis, as evidenced by sustained albuminuria (≥100 mg/dL) over 2 weeks, were enrolled in the study. […] The Dex treatment (dexamethasone 21-phosphate disodium, 1.32 mg/kg, containing 1.00 mg/kg of dexamethasone, n=11) was given as daily i.v. injection. All treatments continued for 8 weeks. The body weight and proteinuria level of the animals was monitored on a weekly basis. Peripheral blood was collected from saphenous vein every 4 weeks for serum analyses. […] The surviving mice were monitored for an additional two weeks after the last treatment. The mice were then euthanized by CO2 asphyxiation, with all major tissues and organs isolated, weighted and processed at necropsy.\nFor inflammatory cytokine/chemokine analysis, the data obtained were log 2 transformed to make them more normally distributed. The mixed effects model with AR(1) correlation among repeated measures over time of the same animal were used to fit the log transformed cytokine expression values for each cytokine separately. […]"}, "NZB/W F1 mice [3]": {"test_system": "NZB/W F1 mice", "conditions": "mouse, in vivo", "remark": "listed apart in the source"}}, "note": "Entries after “also recorded” stand apart in the source; their conditions may differ."}
{"smiles": "C[C@@H]1C[C@H]2[C@@H]3CCC4=CC(=O)C=C[C@]4(C)[C@@]3(F)[C@@H](O)C[C@]2(C)[C@@]1(O)C(=O)COP(=O)([O-])[O-].[Na+].[Na+]", "note": "[Dex, dexamethasone 21-phosphate disodium]", "values": [{"measurement": "adrenal gland mass", "setting": "NZB/W F1 mice [1]", "result": "significantly lower than the PEG-DiDex group"}, {"measurement": "serum anti-dsDNA IgG level", "setting": "anti-dsDNA IgG", "result": "significantly reduce; also recorded: significantly reduced the antibody level"}, {"measurement": "glomeruli with histological abnormities", "setting": "NZB/W F1 mice kidneys", "result": 40, "unit": "%"}, {"measurement": "mice graded as severe glomerulonephritis (scored 3 and 4 points)", "setting": "NZB/W F1 mice kidneys; 4-point scale", "result": "more than 40%"}, {"measurement": "peripheral white blood cell (WBC) counts", "setting": "NZB/W F1 mice [2]", "result": "lower than the saline group, even though there was no significant difference"}, {"measurement": "change in serum MCP-1, IFN-β and IFN-γ values", "setting": "MCP-1, IFN-β, IFN-γ", "result": "did not induce the improvement"}, {"measurement": "total serum IgG level", "setting": "NZB/W F1 mice [3]", "result": "significant drop of serum IgG value"}]}
